Assay results from patent US20230256190A1, “Methods Of Administering High Concentrations Of Nitric Oxide” (Mallinckrodt Hospital Products IP Unlimited Company, priority 2012, published 2023).

Experiments:
healthy subjects [1] = experiment: Multiple-dose, single-blind, placebo-controlled tolerance study of pulsed nitric oxide: adverse events; type: in vivo, human; conditions: for Total % with any AE: 72 h pulsed inhalation
Description: (§1) A multiple-dose, single-blind, placebo-controlled, tolerance study of pulsed volumes of nitric oxide was completed using healthy subjects. An objective of the study was to determine safe dosing limits of inhaled nitric oxide delivered via a pulse system at cylinder concentrations of 100, 400, and 800 ppm and gas volumes ranging from 4 to 60 mL/breath at dose rates ranging from 17 to 166 μg of NO/sec. Yet another objective of the study was to determine the safety profile, including adverse events (AEs), vital signs and laboratory parameters.
(§2) Six subjects were assigned to each cohort (5 NO, 1 placebo) in a randomized, single-blind fashion. All subjects received 72 hours of continuous inhalation. A total of 22 cohorts were evaluated, with NO doses ranging from 125 to 1500 nmol/breath at delivery concentrations of 100, 400, or 800 ppm and varying volumes (4 to 60 mL per breath) in a matrix design, as shown in Table 1. Vital signs and safety laboratory were evaluated. Blood samples for determination of methemoglobin (MetHb) in venous blood, were collected for 72 hours at selected time points.
(§3) Primary safety evaluations included: (1) qualitative assessment of local nasal tolerability via a scoring system (0 to 3); and (2) formation of MetHb (compared with a standard of 7%) following varying concentrations and volumes of pulsed doses of NO. Safety evaluations included assessments of adverse events (AEs), medical history, physical examinations, vital signs, electrocardiograms (ECGs) and laboratory assessments at baseline and during the study period.
(§4) All evaluations were performed on the ‘Safety’ population, defined as all subjects who were enrolled and treated with any amount of study drug. Descriptive statistics included mean, standard deviation (SD), range, median, CV %, geometric mean and geometric CV %.
(§5) For analysis purposes, cohorts that received the same dose of NO but different cylinder concentrations and volumes were pooled, thereby creating 15 dose levels (n=14 active NO and 1 placebo, from all dose groups combined). These 15 dose levels were grouped into 4 dose analysis groups: placebo, low-dose NO (1-500 nmol/breath), mid-dose NO (501-1000 nmol/breath), and high-dose NO (1001-1500 nmol/breath).

healthy subjects [2] = experiment: Local nasal tolerability scoring (0 to 3) during 72 hours of pulsed nitric oxide inhalation; type: in vivo, human; conditions: for Local tolerability Mean Score / Percent of Subjects Experiencing Nasal Irritation: 72 hours
Description: as §1
as §2, with “All subjects received 72 hours of continuous inhalation.” left out, “Blood samples for determination of methemoglobin (MetHb) in venous blood, were collected for 72 hours at selected time points.” left out
as §3, §4, §5
For analysis purposes, cohorts that received the same dose rate of administration of NO but different cylinder concentrations, doses and volumes were pooled, thereby creating 6 dose rate of administration levels (n=5 active NO and 1 placebo, from all rate of administration groups combined). The dose rate of administration of NO was calculated as the product of the flow rate of NO and the cylinder NO concentration.

[3] = NO 501-1000 nmol/breath (N = 45)
[4] = NO 1001-1500 nmol/breath (N = 15)

Compound: [N]=O [NO, Nitric oxide]
- Back pain (% of subjects) (healthy subjects [1]; NO 1-500 nmol/breath (N = 50)): 6.0%
- Headache (% of subjects) (healthy subjects [1]; NO 1-500 nmol/breath (N = 50)): 8.0%
- Nausea (% of subjects) (healthy subjects [1]; NO 1-500 nmol/breath (N = 50)): 2.0%
- Total % with any AE (healthy subjects [1]; NO 1-500 nmol/breath (N = 50)): 28.0%
- Back pain (% of subjects) (healthy subjects [1]; [3]): 4.4%
- Headache (% of subjects) (healthy subjects [1]; [3]): 4.4%
- Nausea (% of subjects) (healthy subjects [1]; [3]): 4.4%
- Total % with any AE (healthy subjects [1]; [3]): 33.3%
- Back pain (% of subjects) (healthy subjects [1]; [4]): 0.0%
- Headache (% of subjects) (healthy subjects [1]; [4]): 20.0%
- Nausea (% of subjects) (healthy subjects [1]; [4]): 6.7%
- Total % with any AE (healthy subjects [1]; [4]): 53.3%
- Overall incidence of AEs (healthy subjects [1]; across dose, cylinder concentration and volume cohorts): only dose related
- Subjects withdrawn due to chest discomfort, decreased O2 saturation, and dyspnea (healthy subjects [1]; high-dose NO group (1001-1500 nmol/breath), one subject): 6.7%
- Local tolerability Mean Score (healthy subjects [2]; cylinder concentration 100 ppm): 0.10
- Local tolerability Mean Score (healthy subjects [2]; cylinder concentration 400 ppm): 0.09
- Local tolerability Mean Score (healthy subjects [2]; cylinder concentration 800 ppm): 0.33
- Local tolerability Mean Score (healthy subjects [2]; dose group 125 nmol/breath, score 0 to 3): 0.07
- Local tolerability Mean Score (healthy subjects [2]; dose group 250 nmol/breath, score 0 to 3): 0.00
- Local tolerability Mean Score (healthy subjects [2]; dose group 340 nmol/breath, score 0 to 3): 0.10
- Local tolerability Mean Score (healthy subjects [2]; dose group 420 nmol/breath, score 0 to 3): 0.00
- Local tolerability Mean Score (healthy subjects [2]; dose group 500 nmol/breath, score 0 to 3): 0.10
- Local tolerability Mean Score (healthy subjects [2]; dose group 585 nmol/breath, score 0 to 3): 0.40
- Local tolerability Mean Score (healthy subjects [2]; dose group 670 nmol/breath, score 0 to 3): 0.00
- Local tolerability Mean Score (healthy subjects [2]; dose group 750 nmol/breath, score 0 to 3): 0.00
- Local tolerability Mean Score (healthy subjects [2]; dose group 840 nmol/breath, score 0 to 3): 0.60
- Local tolerability Mean Score (healthy subjects [2]; dose group 920 nmol/breath, score 0 to 3): 0.00
- Local tolerability Mean Score (healthy subjects [2]; dose group 1000 nmol/breath, score 0 to 3): 0.33
- Local tolerability Mean Score (healthy subjects [2]; dose group 1160 nmol/breath, score 0 to 3): 0.40
- Local tolerability Mean Score (healthy subjects [2]; dose group 1340 nmol/breath, score 0 to 3): 0.20
- Local tolerability Mean Score (healthy subjects [2]; dose group 1500 nmol/breath, score 0 to 3): 0.75
- Percent of Subjects Experiencing Nasal Irritation (healthy subjects [2]; dosing rate 17 μg NO/sec): 0%
- Percent of Subjects Experiencing Nasal Irritation (healthy subjects [2]; dosing rate 21 μg NO/sec): 10.0%
- Percent of Subjects Experiencing Nasal Irritation (healthy subjects [2]; dosing rate 33 μg NO/sec): 10%
- Percent of Subjects Experiencing Nasal Irritation (healthy subjects [2]; dosing rate 83 μg NO/sec): 10%
- Percent of Subjects Experiencing Nasal Irritation (healthy subjects [2]; dosing rate 167 μg NO/sec): 36.4%
- Local tolerability Mean Score (healthy subjects [2]; pulse volume 4 mL/pulse): 0.00
- Local tolerability Mean Score (healthy subjects [2]; pulse volume 8 mL/pulse): 0.00
- Local tolerability Mean Score (healthy subjects [2]; pulse volume 10 mL/pulse): 0.20
- Local tolerability Mean Score (healthy subjects [2]; pulse volume 15 mL/pulse): 0.10
- Local tolerability Mean Score (healthy subjects [2]; pulse volume 20 mL/pulse): 0.00
- Local tolerability Mean Score (healthy subjects [2]; pulse volume 25 mL/pulse): 0.60
- Local tolerability Mean Score (healthy subjects [2]; pulse volume 30 mL/pulse): 0.07
- Local tolerability Mean Score (healthy subjects [2]; pulse volume 35 mL/pulse): 0.40
- Local tolerability Mean Score (healthy subjects [2]; pulse volume 40 mL/pulse): 0.10
- Local tolerability Mean Score (healthy subjects [2]; pulse volume 45 mL/pulse): 0.33
- Local tolerability Mean Score (healthy subjects [2]; pulse volume 50 mL/pulse): 0.00
- Local tolerability Mean Score (healthy subjects [2]; pulse volume 55 mL/pulse): 0.00
- Local tolerability Mean Score (healthy subjects [2]; pulse volume 60 mL/pulse): 0.30
- Nasal irritation (healthy subjects [2]; doses less than 420 nmol/breath (about 0.4 mg/kg/hr), 48 hours of continuous administration): no evidence of nasal irritation
- Nasal tolerability compared with placebo (healthy subjects [2]; doses less than 420 nmol/breath, at 72 hours): no different than for placebo
- Subjects with nasal redness (healthy subjects [2]; doses less than 420 nmol/breath, at 72 hours, placebo 3/18): 2/18
- Incidence of nasal irritation (healthy subjects [2]; dosing rate of 166 μg g/sec, including a case of nasal ulceration): higher incidence of nasal irritation
- Nasal tolerability compared with placebo (healthy subjects [2]; dosing rates up to 166 μg/sec, 72 hours pulsed dosing): not different from placebo
